# In patent publication US20090221596A1, “Substtituted aryl oximes” (priority 2006, published 2009):
# Test system: Spodoptera frugiperda
# Assay: Spodoptera frugiperda test (spray treatment)
# Assay type: in vivo
# Conditions: foliar, 168 h, 500 g a. i./ha, 7 d, sprayed maize leaf discs, army worm caterpillars, read-out: % 7 d (activity; 100% = all caterpillars killed)
# Excerpt: An appropriate preparation of active compound is produced by mixing 1 part by weight of active compound with the stated amounts of solvent and emulsifier and diluting the concentrate to the desired concentration using emulsifier-containing water.
# Maize leaf discs (Zea mays) are sprayed with a preparation of active compound at the desired concentration and after they have dried off they are populated with caterpillars of the army worm (Spodoptera frugiperda).
# After the desired time the activity is measured in %. Here 100% means that all of the caterpillars have been killed; 0% means that no caterpillar has been killed.
row,Structure (SMILES),pest or weed control at 500 g/ha [%]
1,COc1c(Cl)cc(OCC=C(Cl)Cl)cc1/C(C)=N/OCCc1ccc(NC(=O)OC(C)(C)C)cc1 [Example 41],100
2,COc1c(Cl)cc(OCC=C(Cl)Cl)cc1/C(C)=N/OC(C)c1ccccc1 (centres unmarked) [Example 45],83
3,COc1c(Cl)cc(OCC=C(Cl)Cl)cc1/C(C)=N/OCCOc1ccc(C(F)(F)F)cn1 [Example 21],100
4,COc1c(Cl)cc(OCC=C(Cl)Cl)cc1/C(C)=N/OCCCCOc1ccc(C(F)(F)F)cn1 [Example 22],100
5,COc1c(Cl)cc(OCC=C(Cl)Cl)cc1/C(C)=N/OCCCc1ccc(F)cc1 [Example 42],100
6,COc1c(Cl)cc(OCC=C(Cl)Cl)cc1/C(C)=N/OCCc1ccc(NC(=O)C2(C)CC2)cc1 [Example 40],100
7,COc1c(Cl)cc(OCC=C(Cl)Cl)cc1/C(C)=N/OCCCCOc1c(Cl)cc(C(F)(F)F)cc1Cl [Example 24],100
8,COc1c(Cl)cc(OCC=C(Cl)Cl)cc1/C(C)=N/OCc1ccc(F)c(Oc2ccccc2)c1 [Example 30],100
9,COc1c(Cl)cc(OCC=C(Cl)Cl)cc1/C(C)=N/OCCCCOc1ncc(C(F)(F)F)cc1Cl [Example 23],100
10,COc1c(Cl)cc(OCC=C(Cl)Cl)cc1/C(C)=N/OCc1ccc(Oc2ccc(SC)cc2)cc1 [Example 49],100
11,COc1c(Cl)cc(OCC=C(Cl)Cl)cc1/C(C)=N/OCc1ccc(OC(F)(F)F)cc1 [Example 29],100
12,COc1c(Cl)cc(OCC=C(Cl)Cl)cc1/C(C)=N/OCCc1ccc([N+](=O)[O-])cc1 [Example 39],100

# Test system: Phaedon cochleariae
# Assay: Phaedon test (spray treatment)
# Assay type: in vivo
# Conditions: 500 g a. i./ha, sprayed Chinese cabbage leaves, mustard beetle larvae
# Excerpt: [table] An appropriate preparation of active compound is produced by mixing 1 part by weight of active compound with the stated amounts of solvent and emulsifier and diluting the concentrate to the desired concentration using emulsifier-containing water. Chinese cabbage leaves (Brassica pekinensis) are sprayed with a preparation of active compound at the desired concentration and after they have dried off they are populated with larvae of the mustard beetle (Phaedon cochleariae). After the desired time the activity is measured in %.
row,Structure (SMILES),% 7 d (activity; 100% = all beetle larvae killed) [%]
1,"COc1c(Cl)cc(OCC=C(Cl)Cl)cc1C(=NO)C(C)C (racemic) [Example 14, 1-[3-Chloro-5-(3,3-dichloroallyloxy)-2-methoxyphenyl]-2-methylpropan-1-one oxime]",100

# Test system: Aedes Aegypti
# Assay: Aedes Aegypti test
# Assay type: in vivo
# Conditions: 20 g a. i./ha, third larval stage (L3)
# Description: An appropriate preparation of active compound is produced by mixing the active compound with the stated amounts of solvent and diluting the concentrate to the desired concentration with water.
# The Aedsae aegypti larvae (third larval stage, L3) are treated with a preparation of active compound at the desired concentration.
# After the desired time the activity is measured in %. Here 100%, means that all of the Aedsae aegypti have been killed; 0% means that no Aedsae aegypti have been killed, and -1 denotes that no evaluation was possible.
row,Structure (SMILES),% 2 d (activity; 100% = all Aedes aegypti killed) [%]
1,"COc1c(Cl)cc(OCC=C(Cl)Cl)cc1C(=NO)C(C)C (racemic) [Example 14, 1-[3-Chloro-5-(3,3-dichloroallyloxy)-2-methoxyphenyl]-2-methylpropan-1-one oxime]",80
